Data published in patent EP0569777A2 (Bayer Corporation, priority 1992, dated 1993).
“Also recorded” adds a separate entry of the source. Where a SMILES comes first, the peptide text is derived from it. [ ]: non-standard residue; d: D form. The star is where a group is joined. Sta = CC(C)C[C@H](N)[C@@H](O)CC(=O)O; Isovaleryl = CC(C)CC(=O)*

Experiments:
[1] = target: human cathepsin D (human liver, Cal Biochem, catalog # 219401) (Homo sapiens, UniProt P07339); assay: N-dansyl peptide (SEQ ID NO: 7) peptidase assay with HPLC detection, cathepsin D; format: biochemical; conditions: pepstatin A 213 uM; cathepsin D 2.8 ug/ml, N-Dansyl-peptide 24 uM, pH 5.0, 37 C; Figure 10
Chain of human cathepsin D (human liver, Cal Biochem, catalog # 219401) (P07339 with tags, fused parts or gaps): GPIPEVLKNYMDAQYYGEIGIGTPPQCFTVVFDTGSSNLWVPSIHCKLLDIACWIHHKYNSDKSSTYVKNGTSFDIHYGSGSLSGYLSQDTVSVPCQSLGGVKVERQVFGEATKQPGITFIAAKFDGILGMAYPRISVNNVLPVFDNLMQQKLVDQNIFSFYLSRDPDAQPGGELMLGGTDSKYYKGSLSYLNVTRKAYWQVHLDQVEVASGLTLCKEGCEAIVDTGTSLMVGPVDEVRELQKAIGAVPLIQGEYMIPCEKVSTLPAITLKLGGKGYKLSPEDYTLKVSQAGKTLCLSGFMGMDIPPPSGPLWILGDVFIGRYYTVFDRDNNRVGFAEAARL
Protocol: Reactions (30 ul) were initiated at 37 C by enzyme/inhibitor addition thereby achieving the following t=0 component concentrations: Cathepsin D (2.8 ug/ml), or P-2 enzyme from figure 6 (17.5 ug/ml), N-Dansyl-peptide (24 uM), captopril (0.3 mM) in a cocktail buffer comprising 130 mM in each of acetate, Mes and Tris pH 5.0. Samples contained either pepstatin A (213 uM in 3% v/v final methanol) or an equivalent final concentration of methanol only. At 0, 2, 4, 8 and 24hr, reactions were terminated by addition of 12 % (v/v) TFA (10 ul) and subject to HPLC analysis according to example 2 and 3.
• i) Incubations. […] Incubation with ion-exchange fractions was performed at 37°C for 24 hrs, after which reactions were terminated by adjusting to 3% (v/v) final in TFA. • ii) HPLC quantification of proteolytic products. HPLC analysis was performed using a Hewlet-Packard HP1090 complete with binary solvent delivery, heated column compartment, and auto injector.

[2] = test system: human AD brain fraction P2 V APP degrading activity; assay: Immunoblot assay of APP 695 degradation by Mono-Q pool P2 V; format: biochemical; conditions: 11.5 kDa fragment, trial A,B, Pepstatin A 400µM (methanolic), pH 6.5, 24 hrs, 37°C
Protocol: ii) Solubilization. The membranous control or AD subfractions (P-2 or M) were solubilized by adjusting to the following conditions: 2% (v/v) Triton X-100 containing 50 mM Tris HCl buffer, pH 7.5. After stirring at 4°C for 3.5 hrs, the suspensions were centrifuged at 105,000 g x 60 min in a Beckman 70 Ti rotor. The following final protein concentrations were used in solubilization, for P-2 (3.9 to 4.0 mg/ml); and for M (1.4 to 1.6 mg/ml). Solubilized supernatants were stored at -70°C for later use. The soluble fraction was not treated with detergent but rather was adjusted to 50 mM in Tris HCl, pH 7.5, by the addition of stock 1M buffer. iii) Ion-exchange chromatography. Chromatography was performed using a Gilson gradient liquid chromatograph (model 305 and 306 pumps) equipped with a 50 ml Rheodyne stainless steel loop injector model 7125, and connected to a Mono Q HR 10/10 column (Pharmacia, Piscataway, NJ). Absorbance of column effluent was monitored at 280 nm using a Pharmacia UV-M detector and a Kippen-zonen chart recorder. […] In the initial studies, eluted fractions were monitored for A280 nm, total protein (Bradford assay), and peptidase activity (as decsribed in Examples 2 and 3). […] Fractions were monitored for A 280 nm, total protein (Bradford assay), peptidase activity, and activity for C-terminal processing of recombinant APP. […]

Structure (SMILES): CC(C)CC(=O)N[C@H](C(=O)N[C@H](C(=O)N[C@@H](CC(C)C)[C@@H](O)CC(=O)N[C@@H](C)C(=O)N[C@@H](CC(C)C)[C@@H](O)CC(=O)O)C(C)C)C(C)C [pepstatin A] (Isovaleryl-VV[Sta]A[Sta]-OH)
- Inhibition of peptidase reaction catalyzed by Cathepsin D [1]: inhibited
- Inhibitors (pH 6.5): compounds causing complete inhibition are listed [2]: completely; also recorded: pepstatin A aprotinin
